Source: patent US12421254B2, “KRAS modulators and uses thereof” (Quanta Therapeutics, Inc., priority 2023, dated 2025)

Tests used:
[1] = biological target: GST-tagged KRAS-G12D (2-169) (Homo sapiens, UniProt P01116, G12D); assay: Nucleotide exchange assay (NEA), SOS-mediated, HTRF, KRAS G12D; assay type: biochemical; details: Table 4; IC50 extracted at 30 min; 20 nM SOScat; read-out: NEA G12D IC50
How it was run: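 SOS1cat-driven loading of fluorescent GTP-DY-647P1 (150 nM) onto GST-KRAS-G12D (2-169, 0.25 nM) read by time-resolved FRET; SOScat 20 nM, compound preincubated with KRAS 1 h at RT. Signal blanked to no-SOS reactions, normalized to DMSO; IC50 fitted from the 30-min read.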

[2] = biological target: GST-tagged KRAS-G12V (2-169) (Homo sapiens, UniProt P01116, G12V); assay: Nucleotide exchange assay (NEA), SOS-mediated, HTRF, KRAS G12V; assay type: biochemical; details: Table 4; IC50 extracted at 90 min; 80 nM SOS
How it was run: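 Exchange onto fluorescent GTP-DY-647P1 (150 nM final) catalysed by 80 nM SOS1cat was followed by Tb-anti-GST HTRF at RT for up to 90 min, after 1 h compound pre-incubation with 0.25 nM GST-tagged KRAS-G12V (2-169), pH 7.3. DMSO = 0%, no-SOS blank = 100%; 4-parameter IC50 taken at 90 min.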

[3] = test system: phospho-ERK in GP2D (KRAS-G12D) cells; assay: pERK In Cell Western (ICW) assay (Method B), GP2D; assay type: cell-based; details: GP2d, 3 h, Table 4
Protocol: pERK ICW is a high throughput screening assay to evaluate the cellular potency of mutant KRAS small molecule inhibitors. KRAS mutant cell lines AGS, GP2D (KRAS-G12D) as well as SW620 (KRAS-G12V) were purchased from ATCC and maintained respectively in RPMI/DMEM/RPMI medium supplemented with 10% fetal bovine serum.
Cells grown in exponential phase were trypsinized, resuspended in fresh media, and viable cells were counted using a cell counter with Trypan Blue (BioRad TC20). Cells were seeded into 384-well plate (Greiner 781091) at density of 5,000 cells/well for AGS and 10,000 cells/well for GP2D/SW620 and allowed to grow overnight in a 37° C. CO2 incubator. The next day, compounds were dispensed into wells with a ½ log, 9-point serial dilution using a Tecan D300e dispenser and incubated for 3 hours in a 37° C. CO2 incubator. Cells were then fixed with paraformaldehyde (Electron Microscopy Sciences, 15710, 4% final concentration) for 30 min, permeabilized with wash buffer (1×PBS+0.1% Triton X-100) for 30 min and blocked with Odyssey blocking buffer (Li—COR 927-70001) for 1 hour, all at room temperature (RT). Phospho-ERK antibody (CST 4370L) was diluted 1:500 in Odyssey T20 (PBS) antibody diluent (Li—COR 927-75001) and incubated with cells overnight at 4° C. The next day, plates were washed 5× with wash buffer, incubated with IRDye 800 CW, Goat anti-Rabbit secondary antibody (Li—COR 926-32211, 1:800) and DRAQ5 (CST 4084L, 1:5,000) diluted in Odyssey T20 (PBS) antibody diluent for 1 hour, washed 5×, and imaged on an Odyssey CLx imaging system.
For data analysis, signal intensities from 800 (phosphor-ERK) and 700 (DRAQ5) channels were extracted, and phospho-ERK signals were normalized to DRAQ5 signals for each well and percent of blank control values were computed. Data were then imported into Graphpad Prism to compute half-maximal inhibitory concentrations (IC50) using a 4-parameter variable slope model. Z-factor for each plate was computed from signals derived from wells treated with either DMSO or 5 μM of control compound. AGS pERK ICW (Method B) IC50 (uM) values of selected compounds are depicted in Table 2 with compounds having a value ≥0.001 uM to 0.01 uM as ++++; ≥0.01 uM to 0.1 uM as +++; ≥0.1 uM to 1 uM as ++; ≥1 uM to 10 uM as + and ≥10 uM as NA.

[4] = test system: phospho-ERK in SW620 (KRAS-G12V) cells; assay: pERK In Cell Western (ICW) assay (Method B), SW620; assay type: cell-based
How it was run: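 Read-out is In-Cell Western phospho-ERK signal divided by DRAQ5 per well, as percent of blank control, fitted with a 4-parameter variable-slope model for IC50. Compounds were dosed as 9-point half-log series for 3 h at 37°C on AGS, GP2D (G12D) or SW620 (G12V) cells plated the day before.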

[5] = Homo sapiens, SW-620, 3 h, Table 4

Chain of GST-tagged KRAS-G12V (2-169) (P01116 2-169 isoform P01116-2 G12V): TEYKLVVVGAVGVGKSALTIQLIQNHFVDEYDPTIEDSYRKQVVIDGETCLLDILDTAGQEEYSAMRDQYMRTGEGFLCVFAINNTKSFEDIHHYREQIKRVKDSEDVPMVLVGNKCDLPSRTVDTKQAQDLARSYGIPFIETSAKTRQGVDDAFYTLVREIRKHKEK
Chain of GST-tagged KRAS-G12D (2-169) (P01116 2-169 isoform P01116-2 G12D): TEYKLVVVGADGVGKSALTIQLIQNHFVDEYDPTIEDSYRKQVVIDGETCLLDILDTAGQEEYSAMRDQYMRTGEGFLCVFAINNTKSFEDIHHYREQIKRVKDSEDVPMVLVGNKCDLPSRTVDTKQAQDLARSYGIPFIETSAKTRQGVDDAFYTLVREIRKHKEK

## CCN(c1nc(OCC2CCC3C(=O)N(C)CCN23)nc(N2CC3(C2)SCc2sc(N)c(C#N)c23)n1)C(C)c1cccnc1N (mixture of isomers) [Compound 210, 1′-[4-[[(6SR,8aSR)-2-methyl-1-oxo-3,4,6,7,8,8a-hexahydropyrrolo[1,2-a]pyrazin-6-yl]methoxy]-6-[[(IR)-1-(2-amino-3-pyridyl)ethyl]-ethyl-amino]-1,3,5-triazin-2-yl]-2-amino-spiro[6H-thieno[3,4-b]thiophene-4,3′-azetidine]-3-carbonitrile]
[1]
  IC50: < 10 nM
[2]
  IC50: < 10 nM
[3]
  IC50: 100 to 1000 nM
[4]; [5]
  IC50: 10 to 100 nM

## N#Cc1c(N)sc2c1C1(CC2)CN(c2nc(OC[C@@]34CCCN3C[C@H](F)C4)nc(N3CCCC(O)(C(F)F)C3)n2)C1 (stereo partly drawn) [Compound 87, 2-amino-1′-[4-[3-(difluoromethyl)-3-hydroxy-1-piperidyl]-6-[[(2R,8S)-2-fluoro-1,2,3,5,6,7-hexahydropyrrolizin-8-yl]methoxy]-1,3,5-triazin-2-yl]spiro[5,6-dihydrocyclopenta[b]thiophene-4,3′-azetidine]-3-carbonitrile]
[1]
  IC50: 10 to 100 nM
[2]
  IC50: 10 to 100 nM
[3]
  IC50: 100 to 1000 nM
[4]; [5]
  IC50: 1000 to 20000 nM

## CN(C)CC1(COc2nc(N3CC4(C3)SCc3sc(N)c(C#N)c34)nc(N3CCC[C@@](C)(O)C3)n2)CC1(F)F (stereo partly drawn) [Compound 104, 2-amino-1′-[4-[[1-[(dimethylamino)methyl]-2,2-difluoro-cyclopropyl]methoxy]-6-[(3R)-3-hydroxy-3-methyl-1-piperidyl]-1,3,5-triazin-2-yl]spiro[6H-thieno[2,3-c]thiophene-4,3′-azetidine]-3-carbonitrile]
[1]
  IC50: < 10 nM
[2]
  IC50: < 10 nM
[3]
  IC50: < 10 nM
[4]; [5]
  IC50: 10 to 100 nM

## N#Cc1c(N)sc2c1C1(CC2)CN(c2nc(OC[C@@]34CCCN3C[C@H](F)C4)nc(N3CCOCC(C#N)C3)n2)C1 (single isomer, unassigned) [Compound 91A, (6*)-4-[4-(2-amino-3-cyano-spiro[5,6-dihydrocyclopenta[b]thiophene-4,3′-azetidine]-1′-yl)-6-[[(2R,8S)-2-fluoro-1,2,3,5,6,7-hexahydropyrrolizin-8-yl]methoxy]-1,3,5-triazin-2-yl]-1,4-oxazepane-6-carbonitrile]
[1]
  IC50: < 10 nM
[2]
  IC50: < 10 nM
[3]
  IC50: 100 to 1000 nM
[4]; Table 4, 3 hours
  IC50: 100 to 1000 nM

## C[C@@]1(O)C[C@H](O)CN(c2nc(OC[C@@]34CCCN3C[C@H](F)C4)nc(N3CC4(CCc5sc(N)c(C#N)c54)C3)n2)C1 [Compound 67, 2-amino-1′-[4-[(3R,5S)-3,5-dihydroxy-3-methyl-1-piperidyl]-6-[[(2R,8S)-2-fluoro-1,2,3,5,6,7-hexahydropyrrolizin-8-yl]methoxy]-1,3,5-triazin-2-yl]spiro[5,6-dihydrocyclopenta[b]thiophene-4,3′-azetidine]-3-carbonitrile]
[1]
  IC50: 10 to 100 nM
[2]
  IC50: 10 to 100 nM
[3]
  IC50: 100 to 1000 nM
[4]; [5]
  IC50: ≥ 20000 nM

## CCN(c1nc(OCC(C)N(C)C)nc(N2CC3(C2)SCc2sc(N)c(C#N)c23)n1)[C@H](C)c1cccnc1N (stereo partly drawn) [Compound 177, 2-amino-1′-[4-[[(1R)-1-(2-amino-3-pyridyl)ethyl]-ethyl-amino]-6-[2-(dimethylamino)propoxy]-1,3,5-triazin-2-yl]spiro[6H-thieno[3,4-b]thiophene-4,3′-azetidine]-3-carbonitrile]
[1]
  IC50: 10 to 100 nM
[2]
  IC50: < 10 nM
[3]
  IC50: 100 to 1000 nM
[4]; [5]
  IC50: 100 to 1000 nM

## CN(c1nc(OC[C@@]23CCCN2C[C@H](F)C3)nc(N2CC3(C2)SCc2sc(N)c(C#N)c23)n1)C1CC1 [Compound 160, 2-amino-1′-[4-[cyclopropyl(methyl)amino]-6-[[(2R,8S)-2-fluoro-1,2,3,5,6,7-hexahydropyrrolizin-8-yl]methoxy]-1,3,5-triazin-2-yl]spiro[6H-thieno[3,4-b]thiophene-4,3′-azetidine]-3-carbonitrile]
[1]
  IC50: 10 to 100 nM
[2]
  IC50: 10 to 100 nM
[3]
  IC50: 100 to 1000 nM
[4]; [5]
  IC50: 100 to 1000 nM

## N#Cc1c(N)sc2c1C1(CC2)CN(c2nc(OCC3(C#N)CC3)nc(OCC3(CN4CCOCC4)CC3)n2)C1 [Compound 38, 2-amino-1′-[4-[(1-cyanocyclopropyl)methoxy]-6-[[1-(morpholinomethyl)cyclopropyl]methoxy]-1,3,5-triazin-2-yl]spiro[5,6-dihydrocyclopenta[b]thiophene-4,3′-azetidine]-3-carbonitrile]
[1]
  IC50: 10 to 100 nM
[2]
  IC50: < 10 nM
[3]
  IC50: 1000 to 20000 nM
[4]; [5]
  IC50: 100 to 1000 nM

## CCN(c1nc(OCC2(COC)CCCN2)nc(N2CC3(C2)SCc2sc(N)c(C#N)c23)n1)[C@H](C)c1cccnc1N (stereo partly drawn) [Compound 202, 2-amino-1′-[4-[[(1R)-1-(2-amino-3-pyridyl)ethyl]-ethyl-amino]-6-[[2-(methoxymethyl)pyrrolidin-2-yl]methoxy]-1,3,5-triazin-2-yl]spiro[6H-thieno[3,4-b]thiophene-4,3′-azetidine]-3-carbonitrile]
[1]
  IC50: < 10 nM
[2]
  IC50: < 10 nM
[3]
  IC50: 10 to 100 nM
[4]; [5]
  IC50: 10 to 100 nM

## CC(c1cccnc1N)N(C)c1nc(OC[C@@]23CCCN2C[C@H](F)C3)nc(N2CC3(C2)SCc2sc(N)c(C#N)c23)n1 (single isomer, unassigned) [Compound 120A, 2-amino-1′-[4-[[(1*)-1-(2-amino-3-pyridyl)ethyl]-methyl-amino]-6-[[(2R,8S)-2-fluoro-1,2,3,5,6,7-hexahydropyrrolizin-8-yl]methoxy]-1,3,5-triazin-2-yl]spiro[6H-thieno[3,4-b]thiophene-4,3′-azetidine]-3-carbonitrile]
[1]
  IC50: < 10 nM
[2]
  IC50: < 10 nM
[3]
  IC50: < 10 nM
[4]; [5]
  IC50: < 10 nM

## N#Cc1c(N)sc2c1C1(CC2)CN(c2nc(OCC3(CN4CCOCC4)CC3)nc(N3CCCCC(C#N)C3)n2)C1 (stereo not shown) [Compound 86, 2-amino-1′-[4-(3-cyanoazepan-1-yl)-6-[[1-(morpholinomethyl)cyclopropyl]methoxy]-1,3,5-triazin-2-yl]spiro[5,6-dihydrocyclopenta[b]thiophene-4,3′-azetidine]-3-carbonitrile]
[1]
  IC50: 10 to 100 nM
[2]
  IC50: 10 to 100 nM
[3]
  IC50: 100 to 1000 nM
[4]; [5]
  IC50: 1000 to 20000 nM

## C[C@@]1(CO)C[C@@H](O)CN1c1nc(OC[C@@]23CCCN2C[C@H](F)C3)nc(N2CC3(CCc4sc(N)c(C#N)c43)C2)n1 [Compound 59, 2-amino-1′-[4-[[(2R,8S)-2-fluoro-1,2,3,5,6,7-hexahydropyrrolizin-8-yl]methoxy]-6-[(2S,4R)-4-hydroxy-2-(hydroxymethyl)-2-methyl-pyrrolidin-1-yl]-1,3,5-triazin-2-yl]spiro[5,6-dihydrocyclopenta[b]thiophene-4,3′-azetidine]-3-carbonitrile]
[1]
  IC50: 100 to 1000 nM
[2]
  IC50: 10 to 100 nM
[3]
  IC50: ≥ 20000 nM
[4]; [5]
  IC50: ≥ 20000 nM

## CN(Cc1nsnc1N)c1nc(OC[C@@]23CCCN2C[C@H](F)C3)nc(N2CC3(CCc4sc(N)c(C#N)c43)C2)n1 [Compound 166, 2-amino-1′-[4-[(4-amino-1,2,5-thiadiazol-3-yl)methyl-methyl-amino]-6-[[(2R,8S)-2-fluoro-1,2,3,5,6,7-hexahydropyrrolizin-8-yl]methoxy]-1,3,5-triazin-2-yl]spiro[5,6-dihydrocyclopenta[b]thiophene-4,3′-azetidine]-3-carbonitrile]
[1]
  IC50: 10 to 100 nM
[2]
  IC50: < 10 nM
[3]
  IC50: 100 to 1000 nM
[4]; [5]
  IC50: 10 to 100 nM
